Results as given in patent publication US6900245B2, “Pharmaceutical composition comprising crystalline sibutramine methanesulfonate hemihydrate” (priority 2002, dated 2005).
Structures can show the parent of a compound that is named as a salt. Where two headings read alike, the source gives them in different places.

Legend:
[1] = Exposure of anhydrous enantiomer salts to room temperature, 75% relative humidity; type: physicochemical
From the text: Further, anhydrous (+)- and (−)-sibutramine methanesulfonate were each placed for 1 day at room temperature under 75% relative humidity.

[2] = Non-hygroscopic test: water content by Karl Fischer after storage at 40° C., 75% or 10% relative humidity; type: physicochemical; conditions: for water-content: 40° C.
Method: Crystalline sibutramine methanesulfonate hemihydrate of formula (I), sibutramine hydrochloride monohydrate (IV) and anhydrous sibutramine methanesulfonate were each exposed to a high temperature/humidity condition of 40° C. and 75% relative humidity for 1, 2, and 5 days, and the water content thereof was measured by employing Kaal-Fisher moisture analyzer.
A similar series of experiments were conducted at 40° C. and 10% relative humidity, in order to examine whether the respective compounds are stable under a relatively dry condition.

[3] = background statement on the prior art; cited from earlier work
[4] = Solubility in water at pH 5.2 (saturation, HPLC); type: physicochemical; conditions: for solubility: pH 5.2, thermodynamic from solid, pH5.2, saturation, HPLC, based on water-free sibutramine
From the text: Sibutramine methanesulfonate hemihydrate of formula (I) and sibutramine hydrochloride monohydrate were each dissolved to the saturation point at pH 5.2, and then subjected to high performance liquid chromatography (HPLC) to determine the dissolved amount (based on water-free of sibutramine).

[5] = pH 5.2; Merck Index, 13th Ed, p1522; cited from earlier work
[6] = Stability on long term storage at 60° C. (residual rate); type: physicochemical
Method: The thermal stability of crystalline methanesulfonate hemihydrate of formula (I) during a long term storage was compared with that of the sibutramine hydrochloride monohydrate of formula (IV). The amounts of unchanged crystalline methanesulfonate hemihydrate of formula (I) and sibutramine hydrochloride monohydrate of formula (IV) at 60° C. after 1, 2, 3 and 6 months are shown in Table 3.

[7] = test system: overweight Zuker rats (fa/fa); test: Weight loss effect, 21 days, high-fat food; type: in vivo, rat; conditions: 3 mg/kg everyday for 21 days
Method: (§1) 16 each of overweight Zuker rats (fa/fa) and thin Zuker rats (Fa/Fa) were divided into drug-administrating and control groups (8 rats per group), and the weight of each rat was measured prior to the test. A 3 mg/kg dose of crystalline sibutramine methanesulfonate hemihydrate was administrated to each rat of the drug-administrating groups, whiling the vehicle was administrated to those of the control groups, everyday for 21 days. During the period, rats were allowed free access to high-fat food, and the average weights of the drug-administrating and control groups were determined in order to calculate the weight gain and loss.

thin Zuker rats (Fa/Fa) = test: Weight loss effect, 21 days, high-fat food; type: in vivo, rat; conditions: 3 mg/kg everyday for 21 days
Method: as §1

[8] = 10% relative humidity, storage 1 day
[9] = 10% relative humidity, storage 2 days
[10] = 10% relative humidity, storage 5 days
[11] = 75% relative humidity, storage 1 day
[12] = 75% relative humidity, storage 2 days
[13] = 75% relative humidity, storage 5 days

Compound | state after 1 day [1] | water-content [2, 8] [% by weight] | water-content [2, 9] [% by weight] | water-content [2, 10] [% by weight] | water-content [2, 11] [% by weight] | water-content [2, 12] [% by weight] | water-content [2, 13] [% by weight] | hygroscopicity [3] | solubility [4] [mg/mL] | Residual rate after 1 month [6] | Residual rate after 2 months [6] | Residual rate after 3 months [6] | Residual rate after 6 months [6] | Initial (unchanged amount) [6] | further results
CC(C)CC(N(C)C)C1(c2ccc(Cl)cc2)CCC1.CS(=O)(=O)O (single isomer, unassigned; (-)) [(−)-sibutramine methanesulfonate] | transparent liquid | – | – | – | – | – | – | – | – | – | – | – | – | – | –
CC(C)CC(N(C)C)C1(c2ccc(Cl)cc2)CCC1 (stereo not shown) [sibutramine hydrochloride monohydrate, reference compound] | – | 5.40 | 5.36 | 5.36 | 5.40 | 5.45 | 5.48 | non-hygroscopic | 2.8 | 1.000 | 0.999 | 0.999 | 0.992 | 1.000 | solubility in water [5]: 2.9 mg/mL
CC(C)CC(N(C)C)C1(c2ccc(Cl)cc2)CCC1.CS(=O)(=O)O (single isomer, unassigned; (+)) [(+)-sibutramine methanesulfonate] | transparent liquid | – | – | – | – | – | – | – | – | – | – | – | – | – | –
CC(C)CC(N(C)C)C1(c2ccc(Cl)cc2)CCC1.Cl (stereo not shown) [anhydrous sibutramine hydrochloride] | – | – | – | – | – | – | – | highly hygroscopic | – | – | – | – | – | – | –
CC(C)CC(N(C)C)C1(c2ccc(Cl)cc2)CCC1 (racemic) [sibutramine methanesulfonate hemihydrate] | – | 2.27 | 2.25 | 2.26 | 2.27 | 2.30 | 2.30 | – | 2500 | 1.001 | 0.999 | 0.999 | 1.000 | 1.000 | release of the water of crystallization ([2]; dry condition (40° C., 10% RH)): does not release the water of crystallization; hygroscopicity ([2]; high humidity condition (40° C., 75% RH)): non-hygroscopic; solubility in water compared with sibutramine hydrochloride monohydrate of formula (IV) ([4]; pH 5.2): markedly higher solubility in water; weight loss effect as compared with the control group ([7]; Zuker rats, sentence covers overweight and thin rats): remarkable weight loss effect; The average weight after test (B) ([7]; overweight Zuker rats): 455.6 g; Weight gain (B − A) ([7]; overweight Zuker rats): 123.4 g; Weight loss effect ((Gain in weight of the control group) − (Gain in weight of the drug-administrating group)) ([7]; overweight Zuker rats): 29.6 g; The average weight after test (B) (thin Zuker rats (Fa/Fa)): 303.4 g; Weight gain (B − A) (thin Zuker rats (Fa/Fa)): 58.4 g; Weight loss effect ((Gain in weight of the control group) − (Gain in weight of the drug-administrating group)) (thin Zuker rats (Fa/Fa)): 20.4 g; stability compared with sibutramine hydrochloride monohydrate ([6]; up to 6 months): as stable as sibutramine hydrochloride monohydrate
CC(C)CC(N(C)C)C1(c2ccc(Cl)cc2)CCC1.CS(=O)(=O)O (stereo not shown) [anhydrous sibutramine methanesulfonate] | – | 0.60 | 0.71 | 0.70 | 0.60 | 2.20 | 2.25 | – | – | – | – | – | – | – | –
